This experiment relates to HaCaT. Description: Antioxidant activity in human HaCaT cells assessed as inhibition of TBHP-induced ROS accumulation by measuring ROS level preincubated with cells followed by TBHP addition by CM-H2DCFDA dye-based fluorescence assay relative to control. Type of experiment: functional. Also on record: scale not given: the % may be the effect or the level left.

With `CC(=O)N[C@@H](CS)C(=O)O` [ACETYLCYSTEINE], the Activity was found to be 1%.

The values above are taken from ChEMBL document CHEMBL4033638, “Effect of natural and semi-synthetic cadinanes from Heterotheca inuloides on NF-κB, Nrf2 and STAT3 signaling pathways and evaluation of their in vitro cytotoxicity in human cancer cell lines” (Bioorg Med Chem, 2017).
